# Values of other authors, collected in the CATMoS acute toxicity set (Mansouri et al. 2021).
# Values joined by “and” are separate entries in the source; they are usually repeats but may differ in a detail not shown here. Equal entries are not always repeated.
# Test: rat acute oral toxicity
# Conditions: in vivo
row,SMILES,LD50
1,CCCCOC(CBr)c1ccccc1 (centres undefined),250 mg/kg
2,CCCCCC(C)(O)CC (centres undefined),3400 mg/kg
3,O=C1NCCCN1Cc1ccc(Cl)c(Cl)c1,815 mg/kg
4,C=CCC1=C(C)C(OC(=O)C2C(C=C(C)C)C2(C)C)CC1=O (centres undefined),685 mg/kg
5,CCc1ccc2nc(C(F)(F)F)[nH]c2c1,28 mg/kg
6,CNC(=O)OC1C2(C)CCC(C2)C1(C)C (centres undefined),500 mg/kg
7,CCOC(=O)CC,8730 mg/kg
8,O=C(O)Cc1cc(O)ccc1Nc1c(Cl)cccc1Cl,1430 mg/kg
9,O=NN(CCO)CCO,7500 mg/kg
10,Nc1nncs1,253 mg/kg
11,N#Cc1ccc(N)cc1,283 mg/kg
12,O=C(OCC(COC(=O)c1ccccc1)(COC(=O)c1ccccc1)COC(=O)c1ccccc1)c1ccccc1,1160 mg/kg
13,CC(=O)OCN(C)N=O,130 mg/kg
14,CCOC(=O)CC(SP(=O)(OC)OC)C(=O)OCC (centres undefined),158 mg/kg
15,CNC(=O)ON=C1SC(=NC(C)(C)C)SC1(C)C,31.5 mg/kg
16,CNC(=O)ON=C(CSC)C(C)(C)C,8.5 mg/kg
17,Cl/C=C/C[N+]12CN3CN(CN(C3)C1)C2,500 mg/kg
18,COC(=O)C=C1CCCC1,3360 mg/kg
19,CC(=O)C(NC(=O)C(C)C(O)C(C)NC(=O)C(NC(=O)c1nc(C(CC(N)=O)NCC(N)C(N)=O)nc(N)c1C)C(OC1OC(CO)C(O)C(O)C1(C)OC1OC(CO)C(O)C(O)(C(N)=O)C1O)c1cnc[nH]1)C(=O)NCCC1=NC(c2nc(C(N)=O)cs2)CS1 (centres undefined),649 mg/kg
20,CC(NC(C)(C)C)C(=O)c1cccc(Cl)c1 (centres undefined),482 mg/kg and 600 mg/kg
21,COc1cc2c(cc1OC)[C@@H]1C(=O)c3ccc4c(c3O[C@@H]1CO2)C[C@H](C(C)C)O4,2500 mg/kg
22,O=S1(=O)CCCCO1,500 mg/kg
23,CC(CCl)N(C)C (centres undefined),166 mg/kg
24,CCCCCCCCCCOCCCN(C(=O)CC(C(=O)O)S(=O)(=O)O)C(CC(=O)OCC)C(=O)OCC (centres undefined),16200 mg/kg
25,C=C(C)CNc1ccc(C(C)C(=O)O)cc1 (centres undefined),550 mg/kg

row,SMILES,LD50
1,COc1c(Cl)cc(Cl)c(Cl)c1C(=O)O,300 mg/kg
2,CC(C)/N=c1/cc2n(-c3ccc(Cl)cc3)c3ccccc3nc-2cc1Nc1ccc(Cl)cc1,8400 mg/kg
3,OCCOc1ccc(Cl)cc1Cl,1410 mg/kg
4,N#CN=c1ccccn1Cc1ccc(Cl)cc1,500 mg/kg
5,C=Cc1ccncc1,100 mg/kg
6,Cc1ccc(Cl)c(Nc2ccccc2C(=O)O)c1Cl,100 mg/kg
7,CCCCN1C(=O)c2cccc([N+](=O)[O-])c2C1=O,2030 mg/kg
8,CCN(CCO)CCn1c(Cc2ccccc2)nc2c1c(=O)n(C)c(=O)n2C,1140 mg/kg
9,CCCOC(C1=NCCCN1)c1ccccc1 (centres undefined),625 mg/kg
10,NC1CCN(c2cccc(Cl)n2)CC1,190 mg/kg
11,C1COCCOCCNCCOCCOCCN1,3400 mg/kg
12,C=CC(=O)OCCCCCCC,4500 mg/kg
13,CC(C)CCCCCOC(=O)COc1ccc(Cl)cc1Cl,982 mg/kg
14,CN(C)CCCN1c2ccccc2C(C)(C)c2ccccc21,1670 mg/kg and 1850 mg/kg
15,Oc1cccc2cc3cccc(O)c3c(O)c12,3220 mg/kg
16,CCCCCCCCOC(C[n+]1ccccc1)c1ccc(C2CCCC2)cc1 (centres undefined),250 mg/kg
17,CCN(CC)CCSC(=O)C(c1ccccc1)c1ccccc1,2720 mg/kg
18,CN1[C@@H]2CC[C@H]1C[C@@H](OC(c1ccccc1)c1ccc(Cl)cc1)C2 (some centres undefined),364 mg/kg
19,c1ccc(Nc2ccc(Nc3ccccc3)cc2)cc1,2370 mg/kg
20,CN1CCN(c2cc3c(nn2)Oc2ccccc2N3C)CC1,1000 mg/kg
21,Cc1ccc(C)n1Nc1ccc(N2CCOCC2)nn1,2250 mg/kg
22,CC(C)(C)c1cc(CCC(=O)NCCN)cc(C(C)(C)C)c1O,1560 mg/kg
23,COC(=O)c1ccc(C(=O)OC)cc1,4390 mg/kg
24,COCc1ccc(-c2ccc(COC)cc2)cc1,1370 mg/kg
25,OCC1CC2CCC1C2 (centres undefined),1600 mg/kg

row,SMILES,LD50
1,OC1CCN(c2ccc(-c3ccc(Cl)cc3Cl)nn2)CC1,300 mg/kg
2,Nc1ncnc2[nH]cnc12,227 mg/kg
3,Cc1ccc(Cl)cc1Cl,2400 mg/kg
4,Cc1nccnc1SCc1ccco1,1000 mg/kg
5,CCOCCN(C(=O)CCl)C(=C(C)C)c1ccccc1,983 mg/kg
6,CN(C)C(=O)Oc1ccccc1C1SCCS1,16 mg/kg
7,C[N+]1(C)CCCCC1,270 mg/kg and 464 mg/kg
8,CN(N=O)C(N)=O,110 mg/kg
9,C[C@]12CC[C@@H]3c4ccc(OC(=O)N(CCCl)CCCl)cc4CC[C@H]3[C@@H]1CC[C@@H]2OP(=O)(O)O,5400 mg/kg
10,COP(N)(=S)SC (centres undefined),250 mg/kg
11,CCC(C)(C)c1ccc2c(c1)C(=O)c1ccccc1C2=O,1600 mg/kg
12,CC(C)NC(=O)OCC(O)C1COc2ccccc2O1 (centres undefined),1500 mg/kg
13,CCCOC(=O)CC,10300 mg/kg
14,CCCCCCCCCCCCCCCCCC(=O)Cl,7500 mg/kg
15,CNC(C)Cc1ccccc1 (racemic),29 mg/kg
16,CC(=O)CC(C)(C)N(C)N=O,2100 mg/kg
17,O=c1[nH]c2ccccc2n1CCCN1CCC(n2c(=O)[nH]c3cc(Cl)ccc32)CC1,5240 mg/kg
18,Nc1ccc([N+](=O)[O-])cc1Cl,6430 mg/kg
19,COC(=O)c1ccc(NC(C)=O)o1,1200 mg/kg
20,N=C(N)SCc1ccccc1,27 mg/kg
21,CCOC(=O)NCCOc1ccc(Oc2ccccc2)cc1,16800 mg/kg
22,CC1=CC(=O)OC1=O,2600 mg/kg
23,CCC(C)C(C(=O)OC1CC[N+](C)(C)CC1)c1ccccc1 (centres undefined),720 mg/kg
24,O=S(=O)(O)c1cccc2c(/N=N/c3ccc(/N=N/c4ccc(Nc5ccccc5)c5c(S(=O)(=O)O)cccc45)c4ccccc34)cccc12,15000 mg/kg
